Data as given in patent US20020049167A1, “Azithromycin as a therapeutic agent for infections with leishmania parasites” (priority 2000, published 2002).

Key:
Leishmania major = experiment: In vitro susceptibility of Leishmania major amastigotes in murine monocyte-derived bone marrow macrophages (Giemsa counting); format: cell-based; settings: for multiplication index: analysis of variance; for percentage of macrophages infected: by day five; for number of amastigotes found in infected cells: day five
Description: Monocyte-derived bone marrow macrophages from C57B1/6 naïve mice. These cells were harvested from the femoral bones and incubated for 7 days at 37° C. in 5% CO2 in complete tissue culture medium [DMEM, 20% heat inactivated fetal calf serum, 1% Penicillin/streptomycin, 1% glutamine, 1% pyruvate, 30% L-cell line supernatant]. After 7 days, 50×10^6 macrophages per mouse donor were recovered from the cultures. The cells were then washed and 1×10^6 macrophages were added to the wells (16 mm diameter) of a 24 well plate at the bottom of which was placed a round glass cover slip. The macrophages were added to the wells in 300 μl of culture medium consisting of RPMI 1640,10% heat inactivated fetal calf serum, 1% Penicillin/streptomycin, 1% glutamine, 2.5% BEPES, and 0.1% 2-mercaptoethanol.
Cryopreserved amastigotes of Leishmania major (Friedlin strain), originally obtained from footpad lesions of SCID mice, were thawed, washed with medium and counted in a hemocytometer, then re-suspended in complete medium and added to the wells at a concentration of 1 million per well (amastigote/macrophage ratio 1:1) in 50 μl of complete medium. The total volume of media in each well was […].
Amphotericin B (Fungizone, Gibco) was reconstituted from a lyophilized form and azithromycin (Zithromax, Pfizer) was prepared from a 500 mg-powder vial for IV use; both antibiotics were reconstituted in sterile water and diluted in complete medium to the desired concentration. Amphotericin B was used at a concentration of 1 mg/ml and azithromycin at concentrations of 0.1, 0.6, 3 and 15 μg/ml.
After mixing the macrophages with the amastigotes, the plates were incubated for 3 hrs. at 37° C. in 5% Co2; at that point the plates were washed with PBS to eliminate non-adherent macrophages and free amastigotes. Medium with or without antibiotics was added to the wells at a final volume of 3 ml. Some of the cultures were removed from the wells at this point and placed in petri dishes containing 50 mls of medium with antibiotics. Amphotericin B was used as a positive control group in all the experiments. The cultures were maintained at 37° C. in 5% CO2 and culture media and antibiotics were changed daily.
Before adding antibiotics on day 0 and on days 3 and 5, cover slips were recovered from the wells and petri dishes, immediately fixed and stained with Giemsa for counting, which was performed using 1000X magnification with immersion oil. All the experiments were carried out in duplicate.
Two cover slips were recovered from each time point and the data obtained for each slide was as follows: 200 to 300 macrophages were counted, number of infected macrophages per 100 macrophages and number of amastigotes per 100 macrophages was determined. The results reported are the mean values of those two parasite counts. Experiments were repeated a minimum of two times.

macrophages = settings: levels versus that obtained in the serum (Gladue et al. 1989); cited from earlier work
[1] = 0.1 μg/ml azithromycin, Day 0 (before adding antibiotics)
[2] = 0.6 μg azithromycin, volume 3 ml, five days
[3] = 0.6 μg/ml azithromycin, Day 0 (before adding antibiotics)
[4] = 3.0 μg azithromycin, volume 3 ml, five days
[5] = 3.0 μg/ml azithromycin, Day 0 (before adding antibiotics)
[6] = 15 μg/ml azithromycin, Day 0 (before adding antibiotics)
[7] = amphotericin B at 1 mg/ml, Day 0 (before adding antibiotics)
[8] = amphotericin B at 1 mg/ml, Day 3
[9] = amphotericin B at 1 mg/ml, Day 5

SMILES: CC[C@H]1OC(=O)[C@H](C)[C@@H](O[C@H]2C[C@@](C)(OC)[C@@H](O)[C@H](C)O2)[C@H](C)[C@@H](O[C@@H]2O[C@H](C)C[C@H](N(C)C)[C@H]2O)[C@](C)(O)C[C@@H](C)CN(C)[C@H](C)[C@@H](O)[C@]1(C)O [azithromycin]
- Number of Amastigotes/100 macrophages (Leishmania major; [1]): 27 /100 macrophages
- Percent Infected Macrophages (Leishmania major; [1]): 16%
- Number of Amastigotes/100 macrophages (Leishmania major; 0.1 μg/ml azithromycin, Day 3): 10 /100 macrophages
- Percent Infected Macrophages (Leishmania major; 0.1 μg/ml azithromycin, Day 3): 8%
- Number of Amastigotes/100 macrophages (Leishmania major; 0.1 μg/ml azithromycin, Day 5): 38 /100 macrophages
- Percent Infected Macrophages (Leishmania major; 0.1 μg/ml azithromycin, Day 5): 24%
- Number of Amastigotes/100 macrophages (Leishmania major; 0.6 μg azithromycin, five days): 11 /100 macrophages
- Number of Amastigotes/100 macrophages (Leishmania major; [2]): 23 /100 macrophages
- Percent Infected Macrophages (Leishmania major; [2]): 17%
- Percent Infected Macrophages (Leishmania major; 0.6 μg azithromycin, volume 50 ml, five days): 10%
- Number of Amastigotes/100 macrophages (Leishmania major; [3]): 27 /100 macrophages
- Percent Infected Macrophages (Leishmania major; [3]): 16%
- Number of Amastigotes/100 macrophages (Leishmania major; 0.6 μg/ml azithromycin, Day 3): 14 /100 macrophages
- Percent Infected Macrophages (Leishmania major; 0.6 μg/ml azithromycin, Day 3): 28%
- Number of Amastigotes/100 macrophages (Leishmania major; 0.6 μg/ml azithromycin, Day 5): 11 /100 macrophages
- Percent Infected Macrophages (Leishmania major; 0.6 μg/ml azithromycin, Day 5): 17%
- Number of Amastigotes/100 macrophages (Leishmania major; 3.0 μg azithromycin, five days): 13 /100 macrophages
- Number of Amastigotes/100 macrophages (Leishmania major; [4]): 11 /100 macrophages
- Percent Infected Macrophages (Leishmania major; [4]): 9%
- Percent Infected Macrophages (Leishmania major; 3.0 μg azithromycin, volume 50 ml, five days): 11%
- Number of Amastigotes/100 macrophages (Leishmania major; [5]): 27 /100 macrophages
- Percent Infected Macrophages (Leishmania major; [5]): 16%
- Number of Amastigotes/100 macrophages (Leishmania major; 3.0 μg/ml azithromycin, Day 3): 45 /100 macrophages
- Percent Infected Macrophages (Leishmania major; 3.0 μg/ml azithromycin, Day 3): 31%
- Number of Amastigotes/100 macrophages (Leishmania major; 3.0 μg/ml azithromycin, Day 5): 13 /100 macrophages
- Percent Infected Macrophages (Leishmania major; 3.0 μg/ml azithromycin, Day 5): 9%
- Number of Amastigotes/100 macrophages (Leishmania major; [6]): 27 /100 macrophages
- Percent Infected Macrophages (Leishmania major; [6]): 16%
- Number of Amastigotes/100 macrophages (Leishmania major; 15 μg/ml azithromycin, Day 3): 13 /100 macrophages
- Percent Infected Macrophages (Leishmania major; 15 μg/ml azithromycin, Day 3): 10%
- Number of Amastigotes/100 macrophages (Leishmania major; 15 μg/ml azithromycin, Day 5): 12 /100 macrophages
- Percent Infected Macrophages (Leishmania major; 15 μg/ml azithromycin, Day 5): 9%
- multiplication index (Leishmania major; 0.6-15 μg/ml of azithromycin): significant reduction
- ability to limit the replication of L. major (multiplication index) compared with 1 mg/ml of amphotericin B (Leishmania major; 3 and 15 μg/ml of azithromycin): statistically equal
- 50% effective dose (ED50) (Leishmania major; L. major in murine macrophages in vitro): < 0.6 µg/mL
- percentage of macrophages infected (Leishmania major; 0.6-15 μg/ml of azithromycin): significant decrease
- number of amastigotes found in infected cells (Leishmania major; 3.0-15 μg/ml of azithromycin): significant decrease
- drug accumulation in the tissue cells, especially in macrophages, relative to serum (macrophages): 110 times

SMILES: C[C@@H]1[C@H](O)[C@@H](C)/C=C/C=C/C=C/C=C/C=C/C=C/C=C/[C@H](O[C@@H]2O[C@H](C)[C@@H](O)[C@H](N)[C@@H]2O)C[C@@H]2O[C@](O)(C[C@@H](O)C[C@@H](O)[C@H](O)CC[C@@H](O)C[C@@H](O)CC(=O)O[C@H]1C)C[C@H](O)[C@H]2C(=O)O [Amphotericin B]
- multiplication index (Leishmania major; 1 mg/ml of amphotericin B): significant reduction
- Number of Amastigotes/100 macrophages (Leishmania major; [7]): 27 /100 macrophages
- Percent Infected Macrophages (Leishmania major; [7]): 16%
- Number of Amastigotes/100 macrophages (Leishmania major; [8]): 1 /100 macrophages
- Percent Infected Macrophages (Leishmania major; [8]): 1%
- Number of Amastigotes/100 macrophages (Leishmania major; [9]): 0 /100 macrophages
- Percent Infected Macrophages (Leishmania major; [9]): 0%
- percentage of macrophages infected (Leishmania major; 1 mg/ml of amphotericin B): significant decrease
- number of amastigotes found in infected cells (Leishmania major; 1 mg/ml of amphotericin B): significant decrease
